Measurements as given in patent US11518742B2 (priority 2020, dated 2022).
Where two headings read alike, the source gives them in different places.

Tests used:
[1] = Toxicokinetics, 14-day intranasal study in dogs (Study 62959); assay type: in vivo; conditions: dog, plasma, inhaled or intranasal; for AUC(0-inf): read-out: AUCINF_obs; for AUC(0-t): read-out: AUC0-Tlast
Protocol: (§1) Assessments of mortality, clinical signs, olfactory reflex, body weights, food consumption, ophthalmology, and electrocardiograms were performed. In addition, clinical pathology assessments (hematology, coagulation, clinical chemistry and urinalysis) were evaluated once pretreatment and at termination. Blood samples were collected from the jugular vein of all animals on Days 1 and 14, at up to 8 time points relative to treatment, for analysis of test item concentration in plasma and the subsequent calculation of toxicokinetic parameters. Following dosing, the Main animals were euthanized and subjected to a complete necropsy examination on Day 15. […] All Main and Recovery study animals underwent complete necropsy examinations, selected tissues/organs were retained, and microscopic evaluations of a standard set of tissues were performed.
For toxicokinetics, a series of 8 blood samples were collected from the jugular vein from all treated animals on each of Days 1 and 14 of the treatment period at 2, 5, 10, 15, 30, and 60 minutes as well as 3 and 8 hours after treatment.

[2] = system: Escherichia coli tester strain WP2uvrA; assay: Bacterial Reverse Mutation Test (Ames test), Escherichia coli
[3] = target: hERG potassium channel current (IKr) (Homo sapiens, UniProt Q12809); assay: cell-based
Sequence of hERG potassium channel current (IKr) (Q12809 whole entry): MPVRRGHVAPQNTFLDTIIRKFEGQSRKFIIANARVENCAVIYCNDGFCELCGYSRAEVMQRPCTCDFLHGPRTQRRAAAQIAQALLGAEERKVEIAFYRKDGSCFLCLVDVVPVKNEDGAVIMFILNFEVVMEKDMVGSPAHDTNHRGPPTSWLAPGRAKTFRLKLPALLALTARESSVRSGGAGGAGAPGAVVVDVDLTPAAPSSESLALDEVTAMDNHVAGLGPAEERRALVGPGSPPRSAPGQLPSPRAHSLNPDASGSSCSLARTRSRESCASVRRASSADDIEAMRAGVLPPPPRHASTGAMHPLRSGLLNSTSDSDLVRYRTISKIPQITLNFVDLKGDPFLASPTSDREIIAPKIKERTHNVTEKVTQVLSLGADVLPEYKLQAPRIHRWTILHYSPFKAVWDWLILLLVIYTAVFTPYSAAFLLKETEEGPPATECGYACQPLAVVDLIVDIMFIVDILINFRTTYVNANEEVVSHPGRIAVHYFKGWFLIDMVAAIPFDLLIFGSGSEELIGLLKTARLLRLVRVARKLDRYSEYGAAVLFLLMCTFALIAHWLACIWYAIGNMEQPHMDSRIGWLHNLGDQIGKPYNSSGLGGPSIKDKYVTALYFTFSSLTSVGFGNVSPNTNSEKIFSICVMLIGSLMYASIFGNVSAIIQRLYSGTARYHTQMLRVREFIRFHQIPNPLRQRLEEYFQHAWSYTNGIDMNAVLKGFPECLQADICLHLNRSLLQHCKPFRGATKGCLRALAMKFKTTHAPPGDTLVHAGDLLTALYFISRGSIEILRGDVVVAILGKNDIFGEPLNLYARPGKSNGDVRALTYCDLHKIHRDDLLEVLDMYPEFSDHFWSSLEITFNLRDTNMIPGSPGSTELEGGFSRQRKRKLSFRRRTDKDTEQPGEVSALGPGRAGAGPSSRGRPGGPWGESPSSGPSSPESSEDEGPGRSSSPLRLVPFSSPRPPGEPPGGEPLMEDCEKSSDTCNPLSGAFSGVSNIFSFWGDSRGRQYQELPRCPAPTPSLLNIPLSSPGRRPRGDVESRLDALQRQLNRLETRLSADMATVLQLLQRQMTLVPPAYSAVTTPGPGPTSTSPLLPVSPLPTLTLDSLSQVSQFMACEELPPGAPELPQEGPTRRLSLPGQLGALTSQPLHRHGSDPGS
Text: This assay is employed as a screen to assess potential risks for QT interval prolongation.

[4] = 14-day repeat-dose intranasal toxicity study with 14-day recovery in rats (Study 700041); assay type: in vivo, rat; conditions: both sexes, Sprague Dawley, in vivo, inhaled or intranasal; 14-day intranasal, rat
Protocol: (§2) The animals were monitored for mortality, clinical signs, respiratory measurements, body weights, food consumption, and body temperature. Ophthalmoscopic examinations and respiratory function tests were performed on all animals at scheduled timepoints. Clinical pathology assessments (hematology, coagulation, clinical chemistry, and urinalysis) were evaluated at termination. […] Following dosing, the Main animals were euthanized and subjected to a complete necropsy examination on Day 15. […] TK animals were euthanized after the last blood collection and discarded without further examination. At terminal euthanasia, selected tissues/organs were weighed, and microscopic evaluations of a standard set of tissues including the nasal turbinates (4 sections) and brain (7 sections) were performed for all Main and Recovery study animals.
(§3) Following dosing, animals in the Main group were euthanized and subjected to a necropsy examination on Day 15. […] For toxicokinetics, a series of 8 blood samples (approximately 0.5 mL each) were collected from all rats in the Toxicokinetic group (3 rats/sex/timepoint) on Days 1 and 14 of the treatment period at 2, 5, 10, 15 and 30 minutes, and 1.0, 3.0 and 8 hours after treatment. For control rats (3 rats/sex) in the Toxicokinetic group only 1 sample was collected at the 15 minutes post dosing timepoint on Days 1 and 14.
(§4) Toxicity was based on the following parameters monitored: mortality/morbidity, clinical observations, body weights/gains, food consumption, ophthalmoscopy, clinical pathology (hematology, coagulation, chemistry, and urinalysis), necropsy observations, selected organ weights, and microscopic examination of a complete set of standard tissues including 4 cross levels of the nasal cavity and 7 sections of the brain.

Sprague Dawley rats = assay: as above; assay type: in vivo, rat; conditions: for Thymus Mean Absolute Weight, percentage compared to the control value: males; for Clinical signs: male and female
Protocol: as §2, §3, §4

[5] = 14-day repeat-dose intranasal toxicity study with 14-day recovery in dogs (Study 62959); assay type: in vivo, dog; conditions: both sexes, Beagle, dog, in vivo, inhaled or intranasal; 14 consecutive days intranasal, 14-day recovery
Protocol: as §1

Beagle dogs = assay: as above; assay type: in vivo, dog
Protocol: as §1

[6] = Maximum tolerated dose followed by 7-day repeat-dose toxicology in dogs (Study 62958); assay type: in vivo, dog; conditions: both sexes, dog, in vivo, inhaled or intranasal; intranasal instillation
Protocol: (§5) In support of these objectives, the study consisted of 2 individual phases.
(§6) The test item was administered once by intranasal instillation to one male and female dog for up to 5 dose levels until the highest tolerable dose (MTD) was determined as described in Table 11.
(§7) During Phase 2, assessments of mortality, clinical signs, body weights and food consumption were performed. […] Following the last dosing, all animals were euthanized and subjected to a necropsy examination on Day 8. The necropsy consisted of an external examination; including reference to all clinically-recorded lesions, as well as a detailed internal examination. Study plan specific tissues/organs were collected and preserved following necropsy but were not further examined microscopically.

dogs = assay: as above; assay type: in vivo, dog
Protocol: as §5, §6, §7

[7] = female, Beagle, 0.8 mg/kg/day, Day 1, Female
[8] = female, Beagle, 0.8 mg/kg/day, Day 14, Female
[9] = female, beagle, 0.4 mg/kg/day, Day 1, Female
[10] = female, beagle, 0.4 mg/kg/day, Day 14, Female
[11] = male, Beagle, 0.8 mg/kg/day, Day 1, Male
[12] = male, Beagle, 0.8 mg/kg/day, Day 14, Male
[13] = male, beagle, 0.4 mg/kg/day, Day 1, Male
[14] = male, beagle, 0.4 mg/kg/day, Day 14, Male

Compound: COc1ccc2[nH]cc(CCN(C)C)c2c1 [5MeODMT, 5-methoxy-N,N-dimethyltryptamine]
- Tmax ([1]; both sexes, Beagle, dogs, 14-day intranasal study): 3 to 14 min
- half-life ([1]; both sexes, Beagle, dogs, 14-day intranasal study, read-out: apparent elimination half-lives): 19 to 95 min
- Cytotoxicity ([2]; E. coli strain, absence or presence of S9 mix): No cytotoxicity
- Mutagenic potential (conclusion) ([2]; absence or presence of S9): no mutagenic potential
- IC50 [3]: 8.69 µM
- inhibition at 1 µM ([3]; human): 5.03 ± 1.95%
- inhibition at 3 µM ([3]; human): 23.8 ± 6.1%
- inhibition at 10 µM ([3]; human): 52.7 ± 2.61%
- inhibition at 35 µM ([3]; human): 82.2 ± 1.91%

Compound: COc1ccc2[nH]cc(CCN(C)C)c2c1 [BPL-5MEO, 5-methoxy-N,N-dimethyltryptamine]
- AUC ([1]; Beagle, dogs, 1.5 mg/kg/day, combined for both sexes, read-out: AUCINT_obs at the NOAEL): 220 ng·h/mL
- Cmax [1, 7]: 328 ng/mL
- AUC(0-inf) [1, 7]: 265 ng·h/mL
- half-life ([1]; female, Beagle, 0.8 mg/kg/day, Day 1, Female, read-out: t1/2 (converted)): 43.8 min
- Cmax [1, 8]: 244 ng/mL
- AUC(0-t) [1, 8]: 248 ng·h/mL
- half-life ([1]; female, Beagle, 0.8 mg/kg/day, Day 14, Female, read-out: t1/2 (converted)): 95.4 min
- Cmax [1, 9]: 242 ng/mL
- AUC(0-t) [1, 9]: 104 ng·h/mL
- AUC(0-inf) [1, 9]: 106 ng·h/mL
- half-life ([1]; female, beagle, 0.4 mg/kg/day, Day 1, Female, read-out: t1/2 (converted)): 18.7 min
- Cmax [1, 10]: 196 ng/mL
- AUC(0-t) [1, 10]: 86.4 ng·h/mL
- AUC(0-inf) [1, 10]: 95.9 ng·h/mL
- half-life ([1]; female, beagle, 0.4 mg/kg/day, Day 14, Female, read-out: t1/2 (converted)): 42.4 min
- Tmax ([1]; female, beagle, […], 2.5 & […], Day 1, Female): 6.66 min
- half-life ([1]; female, beagle, […], 2.5 & […], Day 1, Female, read-out: t1/2 (converted)): 50.9 min
- Cmax [1, 11]: 300 ng/mL
- Tmax [1, 11]: 6.66 min
- AUC(0-t) [1, 11]: 152 ng·h/mL
- AUC(0-inf) [1, 11]: 160 ng·h/mL
- half-life ([1]; male, Beagle, 0.8 mg/kg/day, Day 1, Male, read-out: t1/2 (converted)): 35.7 min
- Cmax [1, 12]: 411 ng/mL
- Tmax [1, 12]: 6.66 min
- AUC(0-t) [1, 12]: 298 ng·h/mL
- AUC(0-inf) [1, 12]: 322 ng·h/mL
- half-life ([1]; male, Beagle, 0.8 mg/kg/day, Day 14, Male, read-out: t1/2 (converted)): 79.2 min
- Cmax [1, 13]: 343 ng/mL
- AUC(0-t) [1, 13]: 77.9 ng·h/mL
- AUC(0-inf) [1, 13]: 80.9 ng·h/mL
- half-life ([1]; male, beagle, 0.4 mg/kg/day, Day 1, Male, read-out: t1/2 (converted)): 34.3 min
- Cmax [1, 14]: 285 ng/mL
- Tmax [1, 14]: 6.66 min
- AUC(0-t) [1, 14]: 70.6 ng·h/mL
- AUC(0-inf) [1, 14]: 77.7 ng·h/mL
- half-life ([1]; male, beagle, 0.4 mg/kg/day, Day 14, Male, read-out: t1/2 (converted)): 25.7 min
- Tmax ([1]; male, beagle, […], 2.5 & […], Day 14, Male): 13.4 min
- half-life ([1]; male, beagle, […], 2.5 & […], Day 14, Male, read-out: t1/2 (converted)): 49 min
- NOAEL at 14 days [4]: 5 mg/kg
- Effect on reproductive tissues (Sprague Dawley rats; 14-day pivotal GLP intranasal toxicity study, rats): no evidence of an adverse effect on reproductive tissues
- Respiratory rates (Sprague Dawley rats; 20 minutes post dose): Decreases in respiratory rates
- Thymus Mean Absolute Weight, percentage compared to the control value (Sprague Dawley rats; Group 2 (5 mg/kg/day)): −4%
- Clinical signs (Sprague Dawley rats; Group 2 (Low Dose) 5 mg/kg/day): incoordination, shaking, salivation, decreased activity, lying on cage floor and sensitive to touch
- Thymus Mean Absolute Weight, percentage compared to the control value (Sprague Dawley rats; Group 3 (20 mg/kg/day)): 18%
- Clinical signs (Sprague Dawley rats; Group 3 (Mid Dose) 20 mg/kg/day): incoordination, shaking (or tremor), increased or shallow respiration, mydriasis, salivation, decreased activity, partially closed eyes, lying on cage floor and sensitive to touch
- Thymus Mean Absolute Weight, percentage compared to the control value (Sprague Dawley rats; Group 4 (75 mg/kg/day)): −31%
- Clinical signs (Sprague Dawley rats; Group 4 (High Dose) 75 mg/kg/day): incoordination, shaking (or tremor), increased or shallow respiration, mydriasis, salivation, decreased activity, partially closed eyes, lying on cage floor and sensitive to touch
- Microscopic findings, epithelium of nasal cavities 1-4 (Sprague Dawley rats; Main animals, proportional to dose, greater in males): minimal to mild changes
- Reversibility of nasal microscopic findings (Sprague Dawley rats; after 14-day recovery period): incomplete but progressive ongoing reversal of epithelial degeneration
- Body temperature (Sprague Dawley rats; both sexes): Slight dose dependent body temperature increases
- Body weight gain (Sprague Dawley rats; both sexes, Days 1 to 14): Slight dose-dependent body weight gain suppression
- Ocular effect (Sprague Dawley rats; dose levels 75 mg/kg/day for 14 days): no adverse ocular effect
- Activated partial thromboplastin time (APTT) (Sprague Dawley rats; mid (20 mg/kg/day) and high (75 mg/kg/day) dose groups, both sexes): APTT were increased
- Hematology (Sprague Dawley rats; mid and high dose groups, both sexes): Platelet, neutrophil, monocyte and basophil counts were slightly increased
- Overall tolerability (Sprague Dawley rats; ≤75 mg/kg/day for 14 consecutive days): tolerated with no BPL-5MEO-related effects on mortality, ophthalmology, clinical chemistry, macroscopic findings and urinalysis
- NOAEL at 14 days [5]: 1.5 mg/kg/day
- Effect on reproductive tissues (Beagle dogs; 14-day pivotal GLP intranasal toxicity study, dogs): no evidence of an adverse effect on reproductive tissues
- Triglyceride (mmol/L), Mean ± SD Day 14 (Beagle dogs; Group 2, 0.4 mg/kg/day, Females): 0.46 ± 0.61 mmol/L
- Triglyceride (mmol/L), Mean ± SD Day 14 (Beagle dogs; Group 2, 0.4 mg/kg/day, Males): 0.40 ± 0.11 mmol/L
- Triglyceride (mmol/L), Mean ± SD Day 14 (Beagle dogs; Group 3, 0.8 mg/kg/day, Females): 0.47 ± 0.22 mmol/L
- Triglyceride (mmol/L), Mean ± SD Day 14 (Beagle dogs; Group 3, 0.8 mg/kg/day, Males): 0.44 ± 0.07 mmol/L
- Time to resolution of clinical signs (Beagle dogs; all treated groups): ≤ 90 min
- Transient clinical observations (Beagle dogs; animals in all treated groups): incoordination, vocalization, mydriasis, decreased or increased activity, increased respiration, gnawing cage wire, excessive licking of nose or lips and circling
- MTD [6]: 2.5 mg/kg
- Mortality and bodyweights (dogs; dose escalation phase, 2 to 5 mg/kg): no BPL-5MEO-related effects on mortality or bodyweights
- Duration of convulsion in the male animal (dogs; last escalating dose 3.5 mg/kg/day): 8 min
